Experimental data reported in PubChem BioAssay (NCI).
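How tested: cells in 96-well plates exposed to compound for 48 hours at five concentrations. At the GI50, growth is halved. TGI: total growth inhibition.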

Assays:
Assay in all cases: NCI-60 cell line screen, 48 h
CAKI-1 renal = system: CAKI-1 renal
NCI-H23 lung = system: NCI-H23 lung
COLO 205 colon = system: COLO 205 colon
U251 CNS = system: U251 CNS
A549 NSCLC = system: A549 NSCLC
UACC-257 melanoma = system: UACC-257 melanoma
TK-10 renal = system: TK-10 renal
KM12 colon = system: KM12 colon
ACHN renal = system: ACHN renal
MDA-MB-231 breast = system: MDA-MB-231 breast

Compound | TGI (CAKI-1 renal) | TGI (NCI-H23 lung) | TGI (COLO 205 colon) | TGI (U251 CNS) | TGI (A549 NSCLC) | TGI (UACC-257 melanoma) | TGI (TK-10 renal) | TGI (KM12 colon) | TGI (ACHN renal) | TGI (MDA-MB-231 breast) | GI50 (CAKI-1 renal) | GI50 (NCI-H23 lung) | GI50 (COLO 205 colon) | GI50 (A549 NSCLC) | GI50 (UACC-257 melanoma) | GI50 (TK-10 renal) | GI50 (MDA-MB-231 breast) | GI50 (KM12 colon)
O=c1[nH]nc(-c2ccc([N+](=O)[O-])cc2)[nH]1 | > 100 µM | > 100 µM | > 100 µM | > 100 µM | > 100 µM | > 100 µM | > 100 µM | > 100 µM | > 100 µM | – | – | – | – | – | – | – | – | –
O=C1CCC(CCc2nc3ccccc3[nH]2)(c2ccccc2)C(=O)N1 (stereo unspecified) | > 100 µM | > 100 µM | > 100 µM | > 100 µM | > 100 µM | > 100 µM | > 100 µM | > 100 µM | > 100 µM | > 100 µM | – | – | – | – | – | – | – | –
COc1ccc(CCn2ccc(=O)c(O)c2C)cc1OC | 12 µM | > 100 µM | > 100 µM | > 100 µM | > 100 µM | 31 µM | > 100 µM | > 100 µM | > 100 µM | 6.2 µM | – | – | – | – | – | – | – | –
CC1=NN(c2cccc(Cl)c2)C2(C1=Cc1ccc(N(C)C)cc1)C(Cl)C(=O)N2c1nc2ccccc2s1 (stereo unspecified) | > 100 µM | > 100 µM | – | > 100 µM | – | > 100 µM | > 100 µM | 38.5 µM | > 100 µM | > 100 µM | – | – | – | – | – | – | – | –
COC(=O)Cc1c2n(c3ccccc13)C(=O)N1c3ccccc3C(CC(=O)OC)C21 (stereo unspecified) | > 100 µM | 64.6 µM | > 100 µM | > 100 µM | > 100 µM | > 100 µM | 47.7 µM | – | > 100 µM | 67.3 µM | – | – | – | – | – | – | – | –
CC(=O)OC1COC(N2c3ccccc3[C@@H]3CCc4c([nH]c5ccccc45)[C@@H]32)C(OC(C)=O)C1OC(C)=O (mixture of isomers) | > 100 µM | > 100 µM | > 100 µM | > 100 µM | > 100 µM | > 100 µM | > 100 µM | > 100 µM | – | > 100 µM | – | – | – | – | – | – | – | –
CCCCCc1cc(CCCC)sc1-c1ccco1 | > 100 µM | > 100 µM | > 100 µM | > 100 µM | > 100 µM | > 100 µM | > 100 µM | > 100 µM | > 100 µM | > 100 µM | – | – | – | – | – | – | – | –
O=C1c2cc3c(cc2-c2c1c1cc(F)c(F)cc1c(=O)n2C[C@H](O)CO)OCO3 | 0.206 µM | 0.613 µM | 1.2 µM | – | 1.12 µM | 0.593 µM | 2.11 µM | > 100 µM | – | 3.18 µM | 0.0288 µM | 0.0611 µM | 0.103 µM | 0.069 µM | 0.143 µM | 0.335 µM | 0.378 µM | 0.123 µM
COc1ccc2c(c1)CCC(CN1CCN(CCOC(c3ccccc3)c3ccccc3)CC1)C2O (stereo unspecified) | 31.5 µM | 28.9 µM | 27.7 µM | 28 µM | 36 µM | 27.2 µM | 28.6 µM | 44.6 µM | 25.6 µM | 29.7 µM | – | – | – | – | – | – | – | –
C=CCN(c1cc(OC)c2[nH]c(C(=O)O)c(C)c2c1[N+](=O)[O-])S(C)(=O)=O | > 100 µM | > 100 µM | > 100 µM | > 100 µM | > 100 µM | > 100 µM | > 100 µM | > 100 µM | > 100 µM | > 100 µM | – | – | – | – | – | – | – | –
